Measurements reported in PMC8954508, “α-Glucosidase and Bacterial β-Glucuronidase Inhibitors from the Stems of Schisandra sphaerandra Staph” (Pharmaceuticals, 2022).
Where two headings read alike, the source gives them in different places.

Tests used:
Format in all cases: biochemical
α-Glucosidase (AGS) [1] = target: T1, α-Glucosidase (AGS) (Saccharomyces cerevisiae, UniProt P53341); test: Inhibition kinetics against AGS (Lineweaver–Burk plots); conditions: for Ki: AGS, secondary plot of slope versus [I], read-out: Ki (inhibition constant of the enzyme); for mode of inhibition against AGS: Lineweaver–Burk plots
T1 sequence (P53341 whole entry): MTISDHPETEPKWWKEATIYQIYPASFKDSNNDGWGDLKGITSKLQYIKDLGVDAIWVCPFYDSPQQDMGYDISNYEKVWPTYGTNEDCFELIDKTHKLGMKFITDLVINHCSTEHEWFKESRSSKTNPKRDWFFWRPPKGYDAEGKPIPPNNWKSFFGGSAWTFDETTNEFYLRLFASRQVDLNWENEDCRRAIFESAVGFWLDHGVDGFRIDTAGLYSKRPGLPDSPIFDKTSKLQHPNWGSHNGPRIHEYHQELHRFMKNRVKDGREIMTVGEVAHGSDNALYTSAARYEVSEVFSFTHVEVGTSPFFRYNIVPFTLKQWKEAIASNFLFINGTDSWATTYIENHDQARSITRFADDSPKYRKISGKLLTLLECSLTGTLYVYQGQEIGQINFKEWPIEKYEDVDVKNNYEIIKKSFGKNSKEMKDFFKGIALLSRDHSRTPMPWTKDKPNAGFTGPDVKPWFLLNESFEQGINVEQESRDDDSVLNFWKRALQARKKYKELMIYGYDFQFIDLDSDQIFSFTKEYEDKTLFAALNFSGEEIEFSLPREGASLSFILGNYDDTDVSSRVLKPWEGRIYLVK
Protocol: (§1) The mode of inhibition for the active compounds was determined by the Lineweaver–Burk plot fitted by GraphPad Prism 8.0 software. The Km value and the Vmax value were obtained from the slope and Y-axis intercept of the Lineweaver–Burk plot based on the following equation:(1) Vmax=1/Y−intercept (2) Km=slope× Vmax
(§2) The Ki and Ki’ values were available by secondary plotting of the slope and Y-intercept on the Lineweaver–Burk plot versus the inhibitor [I] through the following equations:(3) Slope=Km/Vmax+Km[I]/VmaxKi (4) Y−intercept=1/Vmax+[I]/VmaxKi′

α-Glucosidase (AGS) [2] = target: T1, α-Glucosidase (AGS); test: AGS (α-glucosidase) inhibitory assay
Protocol: (§3) The AGS [23, 24, 25, 26] and BGUS [27] inhibitory activities were evaluated by the methods reported in the literature, respectively.

[3] = target: T2, bacterial β-glucuronidase (BGUS) (Escherichia coli, UniProt P05804); test: BGUS (β-glucuronidase) inhibitory assay; conditions: in vitro; for IC50: means ± SD
T2 sequence (P05804 whole entry): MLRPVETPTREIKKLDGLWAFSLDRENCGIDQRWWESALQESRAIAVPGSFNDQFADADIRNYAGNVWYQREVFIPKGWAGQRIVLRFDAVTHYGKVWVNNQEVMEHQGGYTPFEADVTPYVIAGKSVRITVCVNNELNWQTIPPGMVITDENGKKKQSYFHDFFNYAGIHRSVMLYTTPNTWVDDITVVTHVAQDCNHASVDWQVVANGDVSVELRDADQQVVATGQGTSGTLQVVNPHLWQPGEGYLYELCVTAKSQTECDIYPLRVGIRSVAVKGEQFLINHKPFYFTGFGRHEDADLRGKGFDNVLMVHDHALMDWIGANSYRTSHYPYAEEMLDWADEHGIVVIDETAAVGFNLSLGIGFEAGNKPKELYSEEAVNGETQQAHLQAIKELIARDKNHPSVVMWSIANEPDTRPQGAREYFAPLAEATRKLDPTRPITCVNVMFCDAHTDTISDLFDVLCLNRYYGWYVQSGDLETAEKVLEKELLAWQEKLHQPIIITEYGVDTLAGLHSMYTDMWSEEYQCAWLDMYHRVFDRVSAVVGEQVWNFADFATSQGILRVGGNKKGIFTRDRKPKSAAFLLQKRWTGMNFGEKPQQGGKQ
Protocol: as §3

[4] = target: T2, bacterial β-glucuronidase (BGUS); test: Inhibition kinetics against BGUS (Lineweaver–Burk plots)
Protocol: as §1, §2

[5] = in vitro, means ± SD, read-out: IC50 α-Glucosidase

| Structure (SMILES) | Ki (α-Glucosidase (AGS) [1]) [µM] | mode of inhibition against AGS (α-Glucosidase (AGS) [1]) | IC50 (α-Glucosidase (AGS) [2]; [5]) [µM] | BGUS inhibitory activity (in words) [3] | IC50 [3] [µM] | mode of inhibition against BGUS [4] | IC50 (α-Glucosidase (AGS) [2]) [µM] |
| --- | --- | --- | --- | --- | --- | --- | --- |
| C=C(C)[C@@H]1CC[C@@H]2[C@]3(CC[C@]4(C)[C@@H]([C@H](C)CC/C=C(/C)C(=O)O)CC[C@@]24C)C[C@]13CCC(=O)OC [Compound 4, 3,4-seco-(24Z)-cycloart-4(28),24-diene-3,26-dioic-3-methyl ester] | 7.97 | competitive inhibitors | 14.1 ± 0.29 | weak activity | 155 ± 4.68 | – | – |
| C=C(C)[C@@H]1CC[C@@H]2[C@]3(CC[C@]4(C)C(=O)CC[C@@]24C)C[C@]13CCC(=O)OC [Compound 5, schiglausin L] | – | could not be well defined | 42.9 ± 1.04 | – | – | – | – |
| CC1=CCC(C(C)C2CCC3(C)C4CCC5C(C)(C)OC(=O)C=CC56CC46CCC23C)OC1=O (stereo not shown) [Compound 3, schisanlactone B] | 10.5 | mixed-type inhibitors | 29.5 ± 0.7 | – | 14.7 ± 0.1 | mixed-type inhibitor | – |
| CC(=O)OC1CC2=C(CCC3C(=C2)C=CC(=O)OC3(C)C)C2(C)CCC(C(C)C3CC=C(C)C(=O)O3)C12C (stereo not shown) [Compound 1, Sphaerandralide A] | 35.8 | mixed-type inhibitors | – | – | – | – | 61.5 ± 1.75 |
| O=C(O)[C@@H](O)[C@H]1OC(=O)[C@H](O)[C@H]1O [DSL, D-Saccharic 1,4-lactone, reference compound] | – | – | – | – | 56.9 ± 1.57 | – | – |
